Measured values taken from patent US6589952B2, “Imidazo[1,2-a]pyrazines for the treatment of neurological disorders” (Bristol-Myers Squibb Pharma Company, priority 2000, dated 2003).

In the case of `CCCC(O)c1c(CC)nc2c(-c3ccc(Cl)cc3Cl)nccn12` (stereo not shown) [Example 7, 8-(2,4-dichlorophenyl)-2-ethyl-3-(1-hydroxybutyl)imidazo[1,2-a]pyrazine], the melting point is reported as 159 to 160 °C.
